The test system of data set [1] is present invention protein (A19). The experiment in a line: Detection of the ability to convert compound (II) to compound (III), E. coli pKSN1502F extract. In kind it is in vitro ADME, Streptomyces griseus IFO 13849T. The settings on record: 3 ppm of compound (II) labeled with 14C, components A, B, 10 minutes at 30° C. As for the experimental part:
(§1) Reaction solutions of 30 μl were prepared and maintained for 10 minutes at 30° C. The reaction solutions consisted of a 0.1M potassium phosphate buffer (pH7.0) containing 3 ppm of compound (II) labeled with ^14C, 2 mM of β-NADPH (hereinafter, referred to as “component A”) (Oriental Yeast Company), 2 mg/ml of a ferredoxin derived from spinach (hereinafter referred to as “component B”) (Sigma Company), 0.1 U/ml of ferredoxin reductase (hereinafter, referred to as “component C”) (Sigma Company) and 23 μl of the supernatant fraction recovered in Example 32(2). Similarly to Example 4(3), the reaction solutions after the maintenance were extracted with ethyl acetate and the extracted layers were TLC analyzed. […] A spot corresponding to compound (III) was detected from the reaction solution containing E. coli pKSN849AF extract. In contrast, such a spot was not detected from the reaction solution containing E. coli pKSN2 extract.
Similarly to Example 32(3), reaction solutions of 30 μl were prepared and maintained for 10 minutes at 30° C. […] The reaction solutions after the maintenance were extracted with ethyl acetate and the extracted layers were TLC analyzed. […] A spot corresponding to compound (III) was detected from the reaction solution containing E. coli pKSN1502F extract. In contrast, such a spot was not detected from the reaction solution containing E. coli pKSN2 extract.

The test system of another data set is Blackgrass. The experiment in a line: Herbicidal activity test, foliage treatment. Also noted: key: 0: situations in which the condition of sprouting or vegetation at the time of examination of the plant utilized for the test was compared with and showed totally or substantially no difference with that of the untreated application; 10: situations in which the plant completely withered or the sprouting or vegetation was completely suppressed. The settings on record: sprayed onto the foliage of plants cultivated 10 days, investigated after 16 days in a greenhouse. It counts as in vivo, Alopercurus myosuroides. As for the experimental part:
Soil was packed into a round plastic pot having a diameter of 10 cm and depth of 10 cm. Barnyardgrass, Blackgrass, Ivyleaf morningglory were seeded and cultivated in a greenhouse for 10 days. Five (5) parts of the test compound, 6 parts of sorpol3005X (Toho Chemical Company) and 89 parts of xylene were well mixed to produce an emulsion. A certain amount thereof was diluted with water containing 0.1% (v/v) of a sticking agent at a proportion of 1000 L for 1 hectare and was spread uniformly with a spray-gun onto the all sides of the foliage from above the plant cultivated in the above pot. After cultivating the plants for 16 days in a greenhouse, the herbicidal activity of the test compound was investigated.
(§2) In the above Tables 3 and 4, the strength of the herbicidal activity is shown stepwise as 0, 1, 2, 3, 4, 5, 6, 7, 8, 9, and 10.

Data set [2] has as its system present invention protein (A20). In words: Detection of the ability to convert compound (II) to compound (III), E. coli pKSN1525F extract. In kind it is in vitro ADME, Streptomyces lanatus IFO 12787T. The settings on record: 3 ppm of compound (II) labeled with 14C, components A, B, 10 minutes at 30° C. As for the experimental part: as §1
Similarly to Example 32(3), reaction solutions of 30 μl were prepared and maintained for 10 minutes at 30° C. […] The reaction solutions after the maintenance were extracted with ethyl acetate and the extracted layers were TLC analyzed. […] A spot corresponding to compound (III) was detected from the reaction solution containing E. coli pKSN1525F extract. In contrast, such a spot was not detected from the reaction solution containing E. coli pKSN2 extract.

Another data set concerns Ivyleaf morningglory. In words: Herbicidal activity test, soil surface treatment. In kind it is in vivo, Ipomoea hederacea. Also noted: key: 0: situations in which the condition of sprouting or vegetation at the time of examination of the plant utilized for the test was compared with and showed totally or substantially no difference with that of the untreated application; 10: situations in which the plant completely withered or the sprouting or vegetation was completely suppressed. The settings on record: 500 g/ha, sprayed onto the surface of the soil after seeding, investigated after 19 days in a greenhouse. As for the experimental part: Soil was packed into a round plastic pot having a diameter of 10 cm and depth of 10 cm. Barnyardgrass, Blackgrass, Ivyleaf morningglory were seeded. Five (5) parts of the test compound, 6 parts of sorpol3005X (Toho Chemical Company) and 89 parts of xylene were well mixed to produce an emulsion. A certain amount thereof was diluted with water containing 0.1% (v/v) of a sticking agent at a proportion of 1000 L for 1 hectare and was spread uniformly with a spray-gun onto the surface of the soil. After cultivating the plants for 19 days in a greenhouse, the herbicidal activity was investigated.
as §2

Data set [3] has as its system present invention protein (A12). In words: Detection of the ability to convert compound (II) to compound (III), E. coli pKSN1618F extract. In kind it is in vitro ADME, Streptomyces tsusimaensis IFO 13782. The settings on record: 3 ppm of compound (II) labeled with 14C, components A, B, 10 minutes at 30° C. As for the experimental part: as §1
Reaction solutions of 30 μl were prepared and maintained for 10 minutes at 30° C. […] The reaction solutions after the maintenance were extracted with ethyl acetate and the extracted layers were TLC analyzed. […] A spot corresponding to compound (III) was detected from the reaction solution containing E. coli pKSN1618F extract. In contrast, such a spot was not detected from the reaction solution containing E. coli pKSN2 extract.

Data set [4] relates to present invention protein (A17). The experiment in a line: Detection of the ability to convert compound (II) to compound (III), E. coli pKSN608F extract. In kind it is in vitro ADME, Streptomyces griseus ATCC 10137. The settings on record: 3 ppm of compound (II) labeled with 14C, components A, B, 10 minutes at 30° C. As for the experimental part: as §1
Similarly to Example 32(3), reaction solutions of 30 μl were prepared and maintained for 10 minutes at 30° C. […] The reaction solutions after the maintenance were extracted with ethyl acetate and the extracted layers were TLC analyzed. […] A spot corresponding to compound (III) was detected from the reaction solution containing E. coli pKSN608F extract. In contrast, such a spot was not detected from the reaction solution containing E. coli pKSN2 extract.

For `C[C@@H](Oc1cc(-n2c(=O)cc(C(F)(F)F)n(C)c2=O)c(F)cc1Cl)C(=O)O` [compound (II)], the “spot corresponding to compound (III) labeled with 14C (TLC)” value in data set [1], in data set [2], in data set [3] and in data set [4] was “detected” throughout. Moreover, the “Herbicidal Activity Blackgrass” value with Blackgrass (125 g/ha) and in the data set with Blackgrass (500 g/ha) was 10 throughout. The “Herbicidal Activity Ivyleaf Morningglory” value with Ivyleaf morningglory amounted to 10.
